Biological target: T1, Intermediate-conductance Ca2+-activated K+ channels (IK channels), hIK (Homo sapiens, UniProt O15554)
T1 construct: expressed in transfected cells; host or cells: HEK293
Test: Whole-cell patch-clamp recording of ionic current through IK channels stably expressed in HEK293 cells
Assay type: cell-based
Settings: 1 μM test compound, baseline hIK current set to 100 (>100 activator, <100 blocker, 200 = doubling), whole-cell mode
Description: In this experiment the ionic current through Intermediate-conductance Ca^2+-activated K^+ channels (IK channels) is recorded in the whole-cell mode of the patch-clamp technique.
Intermediate-conductance Ca^2+-activated K^+ channels (IK channels) have been cloned from human placenta and stably expressed in HEK293 cells.
Human IK (hIK) was excised from pT3T7 (GenBank Acc. No. N56819) using EcoR I and Not I and subcloned into the mammalian expression vector pNS1Z (NeuroSearch), a custom designed derivative of pcDNA3Zeo (InVitrogen) to give the plasmid construct pNS1Z_hIK. HEK293 tissue culture cells were grown in DMEM (Dulbecco's Modified Eagle Medium) supplemented with 10% FCS (foetal calf serum) at 37° C. in 5% CO2. One day prior to transfection, 10^6 cells were plated in a cell culture T25 flask. The following day, cells were transfected using lipofection (20 μL Lipofectamin™, Life Technologies, with 2.5 μg of the plasmid pNS1Z_hIK in a total volume of 540 μL).
The lipofection mixture was overlaid on the cells and incubated at 37° C. for 5 hours. The cells were then rinsed with regular media and grown for 72 hours in DMEM, 10% FCS at 37° C. in 5% CO2. […]
Experiments are carried out on a patch-clamp workstation equipped with an autosampler. […] Data are stored directly on the harddisk and analysed by the IGOR software (wavemetrics, Lake Oswego, USA)
The whole-cell configuration of the patch clamp technique is applied. […] Cell capacitance is electronically compensated and the resistance between the pipette and the cell interior (the series resistance, Rs) is measured and compensated for. […]
The extracellular (bath) solution contains (conc. in mM): 144 KCl, 0.1 CaCl2, 3 MgCl2, 10 HEPES (pH=7.4). The intracellular (pipette) solution has the following composition (conc. in mM): 144 KCl, 10 EGTA, 10 HEPES (pH=7.2) as well as CaCl2 and MgCl2 in concentrations calculated to result in a free concentration of Ca^2+ between 100 nM and 300 nM. The free concentration of Mg^2+ is calculated to be 1 mM. […]

SMILES	Ionic Currents: Value determined using 1 μM of the test compound
Nc1nc2c(Cl)c(Cl)ccc2s1 [Compound 1, 2-amino-4,5-dichlorobenzothiazole]	170
Cc1ccc2sc(N)nc2c1C [Compound 2, 2-amino-4,5-dimethylbenzothiazole]	130
Nc1nc2c3c(ccc2s1)CCCC3 [Compound 3, 2-amino-(5,6,7,8-tetrahydronaphto)-[1,2-d]-thiazole]	400

Source: US6759422B2, “Ion channel modulating agents” (Neurosearch A/S, priority 1999, dated 2004)
